IC50, melting point and EC (33% CD11b positive cells) data for 27 compounds are collected here from patent publication US6884808B2, “Heterocycle-containing carboxylic acid derivative and drug containing the same” (Eisai Co. Ltd., priority 1995, dated 2005).

The first series addresses T1, Retinoic acid receptor: RAR (Homo sapiens, UniProt P10276).
T1 construct: using a fraction extracted from the nucleus of HL60; endogenous in cells; host or cells: HL60 cells, nucleus-extracted fraction (0.4 M KCl extract, 100,000 x g supernatant)
T1 sequence (P10276 1-462): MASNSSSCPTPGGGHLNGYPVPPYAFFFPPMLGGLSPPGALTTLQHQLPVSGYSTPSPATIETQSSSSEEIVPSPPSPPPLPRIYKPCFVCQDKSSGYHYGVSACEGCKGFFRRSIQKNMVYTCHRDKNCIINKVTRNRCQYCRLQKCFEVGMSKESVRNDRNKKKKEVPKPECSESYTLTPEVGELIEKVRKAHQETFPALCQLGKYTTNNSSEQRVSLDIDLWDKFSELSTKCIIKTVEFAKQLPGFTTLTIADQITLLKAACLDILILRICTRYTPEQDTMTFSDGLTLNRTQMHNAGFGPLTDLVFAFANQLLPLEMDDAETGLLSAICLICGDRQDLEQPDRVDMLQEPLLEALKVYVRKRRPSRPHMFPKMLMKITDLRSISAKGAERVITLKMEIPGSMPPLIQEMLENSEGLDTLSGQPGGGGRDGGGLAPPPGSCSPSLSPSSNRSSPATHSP
Put plainly: Receptor binding assay by using human promyelocytic leukemia cells HL60 (nucleus-extracted fraction, 3H-all-trans retinoic acid). The settings on record: 50% inhibition concentration of 3H-all-trans retinoic acid binding, 4° C. for 16 hours. As to the method: Receptor binding assay by using human promyelocytic leukemia cells HL60
The nucleus-extracted fraction was prepared as described below.
In 15 ml of Solution A [5 mM sodium phosphate (pH 7.4), 10 mM monothioglycerol, 10% v/v glycerol, 1 mM phenylmethyl sulfonyl fluoride (PMSF), 10 μg/ml of aprotinin and 25 μg/ml of leupeptin], HL60 cells (5×10^8) were suspended. The resulting suspension was homogenized, followed by centrifugal separation to remove the supernatant. The precipitate so obtained was suspended in 15 ml of Solution B [10 mM tris-HCl (Tris-HCl) (pH 8.5), 10 mM monothioglycerol, 10% (v/v) glycerol, 1 mM PMSF, 10 μg/ml aprotinin, 25 μg/ml leupeptin and 0.4 M KC1]. After being allowed to stand at 4° C. for one hour, the resulting suspension was subjected to ultracentrifugation at 100,000 xg and 4° C. for one hour.
Receptor binding assay was carried out as follows:
The resulting mixture was allowed to stand at 4° C. for 16 hours. […] The count of the supernatant was determined by a scintillation counter.
As to `CC1(C)CCC(C)(C)c2cc(-c3ccc(-c4ccc(C(=O)O)cc4)[nH]3)ccc21` [1), reference compound], the 50% inhibitory concentration (IC50) came to 500 pM.

Tested on in another series: not given
Assay: not given
Settings: not given
Turning to `CC(C)c1ncc(-c2cc(-c3ccc(C(=O)O)cc3)c[nH]2)nc1C(C)C` [Example 27, 4-[4-[2-[2-(5,6-Diisopropylpyrazinyl)]pyrrolyl]]benzoic acid], the melting point is 245 °C (dec.).

Regarding `CC1(C)CC(C)(C)c2nc(-c3cc(-c4ccc(C(=O)O)cc4)c[nH]3)cnc21` [Example 28, 4-[4-[2-[2-(5,5,7,7-Tetramethylcyclopenta[b]pyrazinyl)]pyrrolyl]]benzoic acid], the melting point fell in the range of 145 to 147 °C.

As for `Cc1[nH]c(-c2cnc3c(n2)C(C)(C)CCC3(C)C)cc1-c1ccc(C(=O)O)cc1` [Example 29, 4-[3-[5-[2-(5,6,7,8-Tetrahydro-5,5,8,8-tetramethylquinoxalyl)]-2-methylpyrrolyl]]benzoic acid], the melting point was 248 to 250 °C.

`CC(C)c1ncc(-c2cc(-c3ccc(C(=O)O)cc3)cs2)nc1C(C)C` [Example 30, 4-[4-[2-[2-(5,6-Diisopropylpyrazinyl)]thienyl]]benzoic acid]: the melting point was in the range of 226 to 229 °C.

Turning to `CC1(C)CC(C)(C)c2nc(-c3cc(-c4ccc(C(=O)O)cc4)cs3)cnc21` [Example 31, 4-[4-[2-[2-(5,5,7,7-Tetramethylcyclopenta[b]pyrazinyl)]thienyl]]benzoic acid], the melting point was 222 °C (dec.).

Take `Cc1sc(-c2cnc3c(n2)C(C)(C)CCC3(C)C)cc1-c1ccc(C(=O)O)cc1` [Example 32, 4-[3-[5-[2-(5,6,7,8-Tetrahydro-5,5,8,8-tetramethylquinoxalyl)]-2-methylthienyl]]benzo acid]: the melting point was 215 to 217 °C.

For `CC(C)n1cc(-c2ccc(C(=O)O)cc2)cc1-c1cnc2c(n1)C(C)(C)CCC2(C)C` [Example 33, 4-[4-[2-[2-(5,6,7,8-tetrahydro-5,5,8,8-tetramethylquinoxalyl)]-1-isopropylpyrrolyl]]benzoic acid], the melting point fell in the range of 225 to 227 °C.

Take `Cn1cc(-c2ccc(C(=O)O)cc2)cc1-c1cnc2c(n1)C(C)(C)CC2(C)C` [Example 35, 4-[4-[2-[2-(5,5,7,7-Tetramethylcyclopenta[b]pyrazinyl)]-1-methylpyrrolyl]]benzoic acid]: the melting point is 250 °C (dec.).

Regarding `CCn1cc(-c2ccc(C(=O)O)cc2)cc1-c1cnc(C(C)C)c(C(C)C)n1` [Example 36, 4-[4-[2-[2-(5,6-Diisopropylpyrazinyl)]-1-ethylpyrrolyl]]benzoic acid], the melting point lay within 272 to 274 °C.

`Cc1c(-c2ccc(C(=O)O)cc2)cc(-c2cnc3c(n2)C(C)(C)CCC3(C)C)n1C` [Example 37] came in with a melting point of 265 to 267 °C.

As for `CC(C)c1ncc(-c2cc(-c3ccc(C(=O)O)cc3)co2)nc1C(C)C` [Example 38, 4-[4-[2-[2-(5,6-Diisopropylpyrazinyl)]furyl]]benzoic acid], the melting point fell in the range of 215 to 218 °C.

On to `CC1(C)CC(C)(C)c2nc(-c3cc(-c4ccc(C(=O)O)cc4)co3)cnc21` [Example 39, 4-[4-[2-[2-(5,5,7,7-Tetramethylcyclopenta[b]pyrazinyl)]-furyl]]benzoic acid], for which the melting point lay in the range of 250 to 252 °C.

For `Cc1oc(-c2cnc3c(n2)C(C)(C)CCC3(C)C)cc1-c1ccc(C(=O)O)cc1` [Example 40, 4-[3-[5-[2-(5,6,7,8-Tetrahydro-5,5,8,8-tetramethylquinoxalyl)]-2-methylfuryl]]benzoic acid], the melting point was in the range of 270 to 272 °C.

`CC1(C)CCC(C)(C)c2nc(-c3cc(-c4ccc(C(=O)O)cc4)cn3Cc3cccnc3)cnc21` [Example 41, 4-[4-[2-[2-(5,6,7,8-tetrahydro-5,5,8,8-tetramethylquinoxalyl)]-1-(3-pyridylmethyl)pyrrolyl]]benzoic acid] gave a melting point of 263 to 266 °C.

For `CC1(C)CCC(C)(C)c2nc(-c3ccc(-c4ccc(C(=O)O)cn4)[nH]3)cnc21` [Example 45, 6-[2-[5-[2-(5,6,7,8-Tetrahydro-5,5,8,8-tetramethylquinoxalyl)]pyrrolyl]]nicotinic acid], the melting point was 278 °C (dec.).

The compound `CC(C)c1ncc(-c2ccc(-c3ccc(C(=O)O)cc3)s2)nc1C(C)C` [Example 46, 4-[2-[5-[2-(5,6,-Diisopropylpyrazinyl)]thienyl]]benzoic acid] showed a melting point of 270 to 272 °C.

As to `CC1(C)CC(C)(C)c2nc(-c3ccc(-c4ccc(C(=O)O)cc4)s3)cnc21` [Example 47, 4-[2-[5-[2-(5,5,7,7-Tetramethylcyclopenta[b]pyrazinyl)]-thienyl]]benzoic acid], the melting point was 275 °C (dec.).

`CC(C)c1ncc(-c2ccc(-c3ccc(C(=O)O)cc3)o2)nc1C(C)C` [Example 48, 4-[2-[5-[2-(5,6-Diisopropropylpyrazinyl)]furyl]]benzoic acid] showed a melting point of 260 to 262 °C.

With `CC1(C)CC(C)(C)c2nc(-c3ccc(-c4ccc(C(=O)O)cc4)o3)cnc21` [Example 49, 4-[2-[5-[2-(5,5,7,7-Tetramethylcyclopenta[b]pyrazinyl)]-furyl]]benzoic acid], the melting point lay within 238 to 240 °C.

In the case of `Cn1c(-c2ccc(C(=O)O)cc2)ccc1-c1cnc2c(n1)C(C)(C)CC2(C)C` [Example 50, 4-[2-[5-[2-(5,5,7,7-Tetramethylcyclopenta[b]pyrazinyl)]-1-methylpyrrolyl]]benzoic acid], the melting point lay within 218 to 220 °C.

Regarding `CC(C)c1ncc(-c2ccc(-c3ccc(C(=O)O)cc3)n2C(C)C)nc1C(C)C` [Example 51, 4-[2-[5-[2-(5,6-Diisopropylpyrazinyl)]-1-isopropylpyrrolyl]]benzoic acid], the melting point is 215 °C (dec.).

Take `CC1(C)CCC(C)(C)c2nc(C(=O)Nc3ccc(C(=O)O)cc3)cnc21` [Example 88, 4-(5,6,7,8-Tetrahydro-5,5,8,8-tetramethyl-2-quinoxalinecarbamoyl)benzoic acid]: the melting point fell in the range of 257 to 259 °C.

Take `CC1(C)CC(C)(C)c2nc(C(=O)Nc3ccc(C(=O)O)cc3)cnc21` [Example 89, 4-(5,5,7,7-Tetramethyl-2-cyclopenta[b]pyrazinecarbamoyl)benzoic acid]: the melting point is 236 to 238 °C.

Turning to `O=C(O)c1ccc(NC(=O)c2cnc(C3CCCC3)c(C3CCCC3)n2)cc1` [Example 90, 4-(2,3-Dicyclopentyl-2-pyrazinecarbamoyl)benzoic acid], the melting point was in the range of 248 to 250 °C.

Turning to `CC(C)c1nnc(C(=O)Nc2ccc(C(=O)O)cc2)nc1C(C)C` [Example 91, 4-(5,6-Diisopropyl-3-[1,2,4]triazinecarbamoyl)benzoic acid], the melting point lay within 182 to 184 °C.

In a further series the test system is HL60 cells. The series is described as follows: Differentiation and induction effects on HL60 cells (CD11b positive cells, flow cytometry). Conditions: Homo sapiens, HL-60, 120 h; concentration at which the existing ratio of CD11b positive cells becomes 33%; cultivation for 5 days; read-out: Differentiation and induction effects of HL60 cells ED1/3. It counts as cell-based. From the text: Differentiation and Induction Effects on HL60 Cells
It is known that human-derived promyelocytic leukemia cell strains HL60 differentiate into the corresponding granulocytic cells in the presence of all-trans retinoic acid [Breitman, T. Selonick., S. and Colling, S. Proc. Natl. Acad. Sci., 77, 2936(1980)]. In general, cells after differentiation have come to express specific differentiated antigens on their surface. When the HL60 cells are differentiated into granulocytic cells, CD11b which is a differential antigen between granulocytes and monocytes is expressed on the surface of the cells [Fontana, J A., Reppuci, A. Durham, J P. and Mirand, D. Cancer Res. 46, 2469-2473(1986)]. Effects of the invention compound on the differentiation and induction into granulocyte cells were studied by making use of the above-described phenomenon.
HL60 cells were cultured and kept in RPMI 1640 (a medium formulated by Rosewell Park Memorial Institute) to which 10% bovine fetal serum, 1 mM sodium […], 50 μM β-mercaptoethanol, 100 IU/ml of penicillin and 100 μg/ml of streptomycin had been added.
On each well of a 24-well plate, a 1 ml portion of the suspension containing HL60 in an amount of 1×10^5 […] was seeded. The invention compound was then added thereto at varied concentrations, followed by cultivation for 5 days in a 5% CO2-air incubator. After cultivation, the cells of each well were collected in a test tube, to which an FITC-labeled monoclonal antibody against Cd11b, that is, a granulocyte-monocyte specific antigen was added. The cells were then immobilized with 0.2% paraformaldehyde. The existing ratio of CD11b positive cells in the vial HL60 cell group present in each well was determined using flow cytometry [Miller, L J., Schwarting, R. and Springer, T A. J. Immunol. 137, 2891-2900(1986)]. The existing ratios of CD11b positive cells-of-compounds which will be described below were increased according to the concentration. The concentration at which the existing ratio of the positive cells becomes 33% is defined as ED1/3.
With `CC1(C)CCC(C)(C)c2cc(-c3ccc(-c4ccc(C(=O)O)cc4)[nH]3)ccc21` [1), reference compound], the EC (33% CD11b positive cells) stood at 0.00094 µM.

As for `CC1=C(/C=C/C(C)=C/C=C/C(C)=C/C(=O)O)C(C)(C)CCC1` [All-trans-retinoic acid, reference compound], the EC (33% CD11b positive cells) was found to be 0.0018 µM.
